Reference: patent US20260070945A1, “MACROCYCLIC IMMUNOMODULATORS” (Bristol-Myers Squibb Company, priority 2022, published 2026)
*1 amine or outer side, *2 acyl side, *3 side chain or, on linkers, in order; H or OH if unused. Where a SMILES comes first, the peptide text is derived from it. Bridges are numbered along the chain shown (N, C = ends). [ ]: non-standard residue; d: D form. The star is where a group is joined. ξ: configuration not given here. Trp(βS-Me) = C[C@@H](c1c[nH]c2ccccc12)[C@H](N)C(=O)O; Phe(3-CF3) = N[C@@H](Cc1cccc(C(F)(F)F)c1)C(=O)O; Phe(4-COOH) = N[C@@H](Cc1ccc(C(=O)O)cc1)C(=O)O; Bip = N[C@@H](Cc1ccc(-c2ccccc2)cc1)C(=O)O; Phe(3-Cl) = N[C@@H](Cc1cccc(Cl)c1)C(=O)O; Phe(3-Me) = Cc1cccc(C[C@H](N)C(=O)O)c1; γGlu = O=C(O)[C@H](CCC(=O)[*:2])N[*:1]; Abu(3S-NH2) = C[C@H](N)[C@H](N)C(=O)O; NH(CH2)12COOH = O=C(O)CCCCCCCCCCCCN*; Val(3-OH) = CC(C)(O)[C@H](N)C(=O)O; 3Pal = N[C@@H](Cc1cccnc1)C(=O)O; 2Thi = N[C@@H](Cc1cccs1)C(=O)O; Cha = N[C@@H](CC1CCCCC1)C(=O)O; Cit = NC(=O)NCCC[C@H](N)C(=O)O; Thr(3ξ) = CC(O)[C@H](N)C(=O)O; Carboxymethyl = O=C(O)C*; NMeA = CN[C@@H](C)C(=O)O; Orn = NCCC[C@H](N)C(=O)O; Aun = NCCCCCCCCCCC(=O)O; Dab = NCC[C@H](N)C(=O)O; Dap = NC[C@H](N)C(=O)O; AEEA = NCCOCCOCC(=O)O; Ac3c = NC1(C(=O)O)CC1; ξC = NC(CS)C(=O)O

biological target: T1, PD-1/PD-L1 interaction (PE-labeled human PD-L1-Ig binding to Jurkat cell line over-expressing human PD-1) (Homo sapiens, UniProt Q15116); assay: Jurkat-PD-1 Cell Binding High-Content Screening Assay (CBA); details: Jurkat-hPD-1 cells, PE-labeled PD-L1-Ig 20 nM final; read-out: Jurkat HPD1 PDL1 IC50
T1 construct: expressed in transfected cells; host or cells: Jurkat
Outline: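 Compound is added first to the PD-1-expressing Jurkat cells and held 2 h at 37 °C in serum-containing DMEM. The fluorescent PD-L1 fusion follows at 20 nM final for 1 h. Fixed, Hoechst-stained cells are then imaged for bound label.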

T1 sequence (Q15116 25-288): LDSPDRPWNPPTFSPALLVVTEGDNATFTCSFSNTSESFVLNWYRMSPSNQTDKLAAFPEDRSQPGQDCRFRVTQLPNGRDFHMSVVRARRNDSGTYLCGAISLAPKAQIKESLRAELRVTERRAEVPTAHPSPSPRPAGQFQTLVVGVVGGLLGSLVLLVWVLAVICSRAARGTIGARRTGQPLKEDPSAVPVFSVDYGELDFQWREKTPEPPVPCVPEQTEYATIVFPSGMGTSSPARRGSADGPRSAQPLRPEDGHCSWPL

IC50 [nM] | Structure (SMILES)
49.5 | Cc1cccc(C[C@@H]2NC(=O)[C@H](CC(=O)O)NC(=O)[C@H](Cc3ccc(OCC(=O)O)cc3)NC(=O)[C@H]([C@@H](C)O)NC(=O)CSC[C@@H](C(=O)N[C@@H](CCN)C(=O)NCCOCCOCC(=O)NCCCCCCCCCCC(=O)O)NC(=O)[C@H](CCC(=O)O)NC(=O)[C@H](C(C)C)NC(=O)[C@H](CC3CCCCC3)NC(=O)[C@H](CC(N)=O)NC(=O)[C@@H](CC(C)C)NC(=O)[C@H](C)N(C)C(=O)[C@H](Cc3ccc(OCC(=O)O)cc3)NC(=O)[C@H](Cc3ccc(-c4ccccc4)cc3)NC(=O)[C@H](Cc3ccc(OCC(=O)O)cc3)NC2=O)c1 [Example 1364] ({CH2CO}-TY(Carboxymethyl)D[Phe(3-Me)]Y(Carboxymethyl)[Bip]Y(Carboxymethyl)[NMeA][dL]N[Cha]VEC[Dab][AEEA][Aun]-OH; thioether N-14)
40.3 | CC(C)C[C@@H]1NC(=O)[C@H]([C@@H](C)c2c[nH]c3ccccc23)NC(=O)[C@H](CC(=O)O)NC(=O)[C@H](Cc2ccc(OCC(=O)O)cc2)NC(=O)[C@H](Cc2ccc(OCC(=O)O)cc2)NC(=O)CSC[C@@H](C(=O)NC2(C(=O)NCCOCCOCC(=O)NCCCCCCCCCCC(=O)O)CC2)NC(=O)[C@H](CCC(N)=O)NC(=O)[C@H](C(C)C)NC(=O)[C@H](CC2CCCCC2)NC(=O)[C@H](CCN)NC(=O)[C@@H](CC(C)C)NC(=O)[C@H](C)N(C)C(=O)[C@H](C(C)C)NC(=O)[C@H](Cc2ccc(-c3ccccc3)cc2)NC1=O [Example 1272] ({CH2CO}-Y(Carboxymethyl)Y(Carboxymethyl)D[Trp(βS-Me)]L[Bip]V[NMeA][dL][Dab][Cha]VQC[Ac3c][AEEA][Aun]-OH; thioether N-14)
29.2 | Cc1cccc(C[C@@H]2NC(=O)[C@H](CC(=O)O)NC(=O)[C@H](Cc3ccc(OCC(=O)O)cc3)NC(=O)[C@H](Cc3cccs3)NC(=O)CSC[C@@H](C(=O)N[C@@H](CCN)C(=O)NCCCCCCCCCCC(=O)O)NC(=O)[C@H](CO)NC(=O)[C@H](C(C)(C)O)NC(=O)[C@H](CC3CCCCC3)NC(=O)[C@H](CCN)NC(=O)[C@@H](CC(C)C)NC(=O)[C@H](C)N(C)C(=O)[C@H](Cc3ccc(OCC(=O)O)cc3)NC(=O)[C@H](Cc3ccc(-c4ccccc4)cc3)NC(=O)[C@H](Cc3ccc(OCC(=O)O)cc3)NC2=O)c1 [Example 1285] ({CH2CO}-[2Thi]Y(Carboxymethyl)D[Phe(3-Me)]Y(Carboxymethyl)[Bip]Y(Carboxymethyl)[NMeA][dL][Dab][Cha][Val(3-OH)]SC[Dab][Aun]-OH; thioether N-14)
10.8 | CC(C)C[C@@H]1NC(=O)[C@H](Cc2c[nH]c3ccccc23)NC(=O)[C@H](CC(=O)O)NC(=O)[C@H](Cc2ccc(C(=O)O)cc2)NC(=O)[C@H](Cc2ccc(OCC(=O)O)cc2)NC(=O)CSC[C@@H](C(=O)N[C@@H](CCCN)C(=O)NCCOCCOCC(=O)NCCCCCCCCCCC(N)=O)NC(=O)[C@H](CCCNC(N)=O)NC(=O)[C@H](C(C)C)NC(=O)[C@H](CC2CCCCC2)NC(=O)[C@H](CCN)NC(=O)[C@@H](CC(C)C)NC(=O)[C@H](C)N(C)C(=O)[C@H](C(C)C)NC(=O)[C@H](Cc2ccc(-c3ccccc3)cc2)NC1=O [Example 1215] ({CH2CO}-Y(Carboxymethyl)[Phe(4-COOH)]DWL[Bip]V[NMeA][dL][Dab][Cha]V[Cit]C[Orn][AEEA][Aun]-NH2; thioether N-14)
23.1 | Cc1cccc(C[C@@H]2NC(=O)[C@H](CC(=O)O)NC(=O)[C@H](Cc3ccc(OCC(=O)O)cc3)NC(=O)[C@H](C(C)O)NC(=O)CSC[C@@H](C(=O)NCCOCCOCC(=O)NCCCCCCCCCCC(=O)O)NC(=O)[C@H](C(C)O)NC(=O)[C@H](C(C)C)NC(=O)[C@H](CC3CCCCC3)NC(=O)[C@H](CCN)NC(=O)[C@@H](CC(C)C)NC(=O)[C@H](C)N(C)C(=O)[C@H](Cc3ccc(OCC(=O)O)cc3)NC(=O)[C@H](Cc3ccc(-c4ccccc4)cc3)NC(=O)[C@H](C(C)C)NC2=O)c1 (stereo partly drawn) [Example 2346] ({CH2CO}-[Thr(3ξ)]Y(Carboxymethyl)D[Phe(3-Me)]V[Bip]Y(Carboxymethyl)[NMeA][dL][Dab][Cha]V[Thr(3ξ)]C[AEEA][Aun]-OH; thioether N-14)
34.1 | CC(C)C[C@H]1NC(=O)[C@H](C)N(C)C(=O)[C@H](Cc2ccc(OCC(=O)O)cc2)NC(=O)[C@H](Cc2ccc(-c3ccccc3)cc2)NC(=O)[C@H](Cc2ccc(C(=O)O)cc2)NC(=O)[C@H](Cc2cccc(Cl)c2)NC(=O)[C@H](CC(=O)O)NC(=O)[C@H](Cc2ccc(OCC(=O)O)cc2)NC(=O)[C@H]([C@@H](C)O)NC(=O)CSC[C@@H](C(=O)N[C@@H](CCN)C(=O)NCCCCCCCCCCC(=O)O)NC(=O)[C@H]([C@@H](C)O)NC(=O)[C@H](C(C)C)NC(=O)[C@H](CC2CCCCC2)NC(=O)[C@H](CCN)NC1=O [Example 1232] ({CH2CO}-TY(Carboxymethyl)D[Phe(3-Cl)][Phe(4-COOH)][Bip]Y(Carboxymethyl)[NMeA][dL][Dab][Cha]VTC[Dab][Aun]-OH; thioether N-14)
28.1 | CC(C)C[C@H]1NC(=O)[C@H](C)N(C)C(=O)[C@H](CCC(N)=O)NC(=O)[C@H](Cc2ccc(-c3ccccc3)cc2)NC(=O)[C@H](Cc2ccc(C(=O)O)cc2)NC(=O)[C@H](Cc2cccc(C(F)(F)F)c2)NC(=O)[C@H](CC(=O)O)NC(=O)[C@H](Cc2ccc(OCC(=O)O)cc2)NC(=O)[C@H]([C@H](C)N)NC(=O)CSC[C@@H](C(=O)N[C@@H](CCN)C(=O)NCCOCCOCC(=O)N[C@@H](CCC(=O)NCCOCCOCC(=O)NCCCCCCCCCCCCC(=O)O)C(=O)O)NC(=O)[C@H](CCC(=O)O)NC(=O)[C@H](C(C)C)NC(=O)[C@H](CC2CCCCC2)NC(=O)[C@H](CCN)NC1=O [Example 1200] ({CH2CO}-[Abu(3S-NH2)]Y(Carboxymethyl)D[Phe(3-CF3)][Phe(4-COOH)][Bip]Q[NMeA][dL][Dab][Cha]VEC[Dab][AEEA][γGlu][AEEA]-{NH(CH2)12COOH}; thioether N-14)
33.4 | Cc1cccc(C[C@@H]2NC(=O)[C@H](CC(=O)O)NC(=O)[C@H](Cc3ccc(OCC(=O)O)cc3)NC(=O)[C@H](Cc3cccnc3)NC(=O)CSC[C@@H](C(=O)N[C@@H](CCN)C(=O)NCCCCCCCCCCC(=O)O)NC(=O)[C@H](CO)NC(=O)[C@H](C(C)C)NC(=O)[C@H](CC3CCCCC3)NC(=O)[C@H](CCN)NC(=O)[C@@H](CC(C)C)NC(=O)[C@H](C)N(C)C(=O)[C@H](Cc3ccc(O)cc3)NC(=O)[C@H](Cc3ccc(-c4ccccc4)cc3)NC(=O)[C@H](Cc3ccc(OCC(=O)O)cc3)NC2=O)c1 [Example 1278] ({CH2CO}-[3Pal]Y(Carboxymethyl)D[Phe(3-Me)]Y(Carboxymethyl)[Bip]Y[NMeA][dL][Dab][Cha]VSC[Dab][Aun]-OH; thioether N-14)
37.1 | Cc1cccc(C[C@@H]2NC(=O)[C@H](CC(=O)O)NC(=O)[C@H](Cc3ccc(OCC(=O)O)cc3)NC(=O)[C@H](Cc3ccc(OCC(=O)O)cc3)NC(=O)CSC[C@@H](C(=O)N[C@@H](CO)C(=O)NCCCCCCCCCCC(=O)O)NC(=O)[C@H](C(C)O)NC(=O)[C@H](CN)NC(=O)[C@H](CC3CCCCC3)NC(=O)[C@H](CCN)NC(=O)[C@@H](CC(C)C)NC(=O)[C@H](C)N(C)C(=O)[C@H](CCCNC(=N)N)NC(=O)[C@H](Cc3ccc(-c4ccccc4)cc3)NC(=O)[C@H](C(C)C)NC2=O)c1 (stereo partly drawn) [Example 2384] ({CH2CO}-Y(Carboxymethyl)Y(Carboxymethyl)D[Phe(3-Me)]V[Bip]R[NMeA][dL][Dab][Cha][Dap][Thr(3ξ)]CS[Aun]-OH; thioether N-14)

same assay, conditions: PE-labeled PD-L1-Ig 20 nM final, Jurkat-hPD-1 cells; read-out: Jurkat HPD1 PDL1 IC50

IC50 [nM] | Structure (SMILES)
29.6 | CC(C)C[C@H]1NC(=O)[C@H](C)N(C)C(=O)[C@H](Cc2ccc(OCC(=O)O)cc2)NC(=O)[C@H](Cc2ccc(-c3ccccc3)cc2)NC(=O)[C@H](Cc2ccc(C(=O)O)cc2)NC(=O)[C@H](Cc2cccc(C(F)(F)F)c2)NC(=O)[C@H](CC(=O)O)NC(=O)[C@H](Cc2ccc(OCC(=O)O)cc2)NC(=O)[C@H](C(C)O)NC(=O)CSC[C@@H](C(=O)N[C@@H](CCN)C(=O)NCCCCCCCCCCC(=O)O)NC(=O)[C@H](CO)NC(=O)[C@H](C(C)(C)O)NC(=O)[C@H](CC2CCCCC2)NC(=O)[C@H](Cc2cnc[nH]2)NC1=O (stereo partly drawn) [Example 2575] ({CH2CO}-[Thr(3ξ)]Y(Carboxymethyl)D[Phe(3-CF3)][Phe(4-COOH)][Bip]Y(Carboxymethyl)[NMeA][dL]H[Cha][Val(3-OH)]SC[Dab][Aun]-OH; thioether N-14)
39.9 | Cc1cccc(C[C@@H]2NC(=O)[C@H](CC(=O)O)NC(=O)[C@H](Cc3ccc(C(=O)O)cc3)NC(=O)[C@H](C(C)O)NC(=O)CSCC(C(=O)N[C@@H](CCN)C(=O)NCCCCCCCCCCCCC(=O)O)NC(=O)[C@H](CO)NC(=O)[C@H](C(C)(C)O)NC(=O)[C@H](CC3CCCCC3)NC(=O)[C@H](CCN)NC(=O)[C@@H](CC(C)C)NC(=O)[C@H](C)N(C)C(=O)[C@H](CCCNC(=N)N)NC(=O)[C@H](Cc3ccc(-c4ccccc4)cc3)NC(=O)[C@H](Cc3ccc(O)cc3)NC2=O)c1 (stereo partly drawn) [Example 2643] ({CH2CO}-[Thr(3ξ)][Phe(4-COOH)]D[Phe(3-Me)]Y[Bip]R[NMeA][dL][Dab][Cha][Val(3-OH)]S[ξC][Dab]-{NH(CH2)12COOH}; thioether N-14)
8.6 | Cc1cccc(C[C@@H]2NC(=O)[C@H](CC(=O)O)NC(=O)[C@H](Cc3ccc(C(=O)O)cc3)NC(=O)[C@H](CCN)NC(=O)CSC[C@@H](C(=O)N[C@@H](CCN)C(=O)NCCCCCCCCCCC(=O)O)NC(=O)[C@H](Cc3cnc[nH]3)NC(=O)[C@H](C(C)(C)O)NC(=O)[C@H](CC3CCCCC3)NC(=O)[C@H](CCN)NC(=O)[C@@H](CC(C)C)NC(=O)[C@H](C)N(C)C(=O)[C@H](Cc3ccc(C(=O)O)cc3)NC(=O)[C@H](Cc3ccc(-c4ccccc4)cc3)NC(=O)[C@H](Cc3ccc(C(=O)O)cc3)NC2=O)c1 [Example 2554] ({CH2CO}-[Dab][Phe(4-COOH)]D[Phe(3-Me)][Phe(4-COOH)][Bip][Phe(4-COOH)][NMeA][dL][Dab][Cha][Val(3-OH)]HC[Dab][Aun]-OH; thioether N-14)
